Experimental data published in PubChem BioAssay (NCI).
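96-well plates; 48 h exposure; 5 concentrations. Endpoints by linear interpolation between flanking doses. Not reached: highest tested concentration assigned. At the GI50, growth is halved. TGI is the concentration that stops growth completely.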

Legend:
Assay in all cases: DTP human tumour cell line panel, 48 h
786-0 renal = system: 786-0 renal
A498 renal = system: A498 renal
A549 NSCLC = system: A549 NSCLC
ACHN renal = system: ACHN renal
BT-549 breast = system: BT-549 breast
CAKI-1 renal = system: CAKI-1 renal
CCRF-CEM leukemia = system: CCRF-CEM leukemia
COLO 205 colon = system: COLO 205 colon
DU-145 prostate = system: DU-145 prostate
EKVX NSCLC = system: EKVX NSCLC
HCC-2998 colon = system: HCC-2998 colon
HCT-116 colon = system: HCT-116 colon
HCT-15 colon = system: HCT-15 colon
HL-60(TB) leukemia = system: HL-60(TB) leukemia
HOP-62 NSCLC = system: HOP-62 NSCLC
HOP-92 NSCLC = system: HOP-92 NSCLC
HS 578T breast = system: HS 578T breast
HT29 colon = system: HT29 colon
IGROV1 ovarian = system: IGROV1 ovarian
K-562 leukemia = system: K-562 leukemia
KM12 colon = system: KM12 colon
LOX IMVI melanoma = system: LOX IMVI melanoma
M14 melanoma = system: M14 melanoma
MALME-3M melanoma = system: MALME-3M melanoma
MCF7 breast = system: MCF7 breast
MDA-MB-231 breast = system: MDA-MB-231 breast
MDA-MB-435 = system: MDA-MB-435
MOLT-4 leukemia = system: MOLT-4 leukemia
NCI-H226 lung = system: NCI-H226 lung
NCI-H23 lung = system: NCI-H23 lung
NCI-H460 lung = system: NCI-H460 lung
NCI-H522 lung = system: NCI-H522 lung
NCI/ADR-RES ovarian = system: NCI/ADR-RES ovarian
OVCAR-3 ovarian = system: OVCAR-3 ovarian
OVCAR-4 ovarian = system: OVCAR-4 ovarian
OVCAR-5 ovarian = system: OVCAR-5 ovarian
OVCAR-8 ovarian = system: OVCAR-8 ovarian
PC-3 prostate = system: PC-3 prostate
RPMI-8226 leukemia = system: RPMI-8226 leukemia
RXF 393 renal = system: RXF 393 renal
SF-268 CNS = system: SF-268 CNS
SF-295 CNS = system: SF-295 CNS
SF-539 CNS = system: SF-539 CNS
SK-MEL-2 melanoma = system: SK-MEL-2 melanoma
SK-MEL-28 melanoma = system: SK-MEL-28 melanoma
SK-MEL-5 melanoma = system: SK-MEL-5 melanoma
SK-OV-3 ovarian = system: SK-OV-3 ovarian
SN12C renal = system: SN12C renal
SNB-19 CNS = system: SNB-19 CNS
SNB-75 CNS = system: SNB-75 CNS
SR leukemia = system: SR leukemia
SW-620 colon = system: SW-620 colon
T-47D breast = system: T-47D breast
TK-10 renal = system: TK-10 renal
U251 CNS = system: U251 CNS
UACC-257 melanoma = system: UACC-257 melanoma
UACC-62 melanoma = system: UACC-62 melanoma
UO-31 renal = system: UO-31 renal

`c1cnn2ncc(-c3ccnc(NCCCN4CCOCC4)n3)c2c1` was tested, and the GI50 (786-0 renal) was 8.63 µM, the TGI (786-0 renal) was over 25 µM and the GI50 (A498 renal) was 4.18 µM. For the same molecule, the TGI (A498 renal) was 12.2 µM, the GI50 (A549 NSCLC) was 7.7 µM and the TGI (A549 NSCLC) was over 25 µM. It also gave a GI50 (ACHN renal) of 6.08 µM, a TGI (ACHN renal) of over 25 µM and a GI50 (BT-549 breast) of 7.5 µM. For the same molecule, the TGI (BT-549 breast) was over 25 µM, the GI50 (CAKI-1 renal) was 6.64 µM and the TGI (CAKI-1 renal) was over 25 µM. It also gave a GI50 (CCRF-CEM leukemia) of 7.73 µM, a TGI (CCRF-CEM leukemia) of over 25 µM and a GI50 (COLO 205 colon) of 3.9 µM. For the same molecule, the TGI (COLO 205 colon) was 7.96 µM, the GI50 (DU-145 prostate) was 7.72 µM and the TGI (DU-145 prostate) was over 25 µM. For the same molecule, the GI50 (EKVX NSCLC) was 6.67 µM, the TGI (EKVX NSCLC) was over 25 µM and the GI50 (HCC-2998 colon) was 9.29 µM. For the same molecule, the TGI (HCC-2998 colon) was over 25 µM, the GI50 (HCT-116 colon) was 7.25 µM and the TGI (HCT-116 colon) was over 25 µM. For the same molecule, the GI50 (HCT-15 colon) was 8.01 µM, the TGI (HCT-15 colon) was over 25 µM and the GI50 (HL-60(TB) leukemia) was 6.08 µM. It also gave a TGI (HL-60(TB) leukemia) of 17.7 µM, a GI50 (HOP-62 NSCLC) of 5.76 µM and a TGI (HOP-62 NSCLC) of over 16.6 µM. The GI50 (HOP-92 NSCLC) was 5.08 µM, the TGI (HOP-92 NSCLC) was 17.4 µM and the GI50 (HS 578T breast) was 6.2 µM. It also gave a TGI (HS 578T breast) of over 23.1 µM, a GI50 (HT29 colon) of 7.43 µM and a TGI (HT29 colon) of over 25 µM. The GI50 (IGROV1 ovarian) was 7.51 µM, the TGI (IGROV1 ovarian) was over 25 µM and the GI50 (K-562 leukemia) was over 22.4 µM. It also gave a TGI (K-562 leukemia) of over 25 µM, a GI50 (KM12 colon) of 6.85 µM and a TGI (KM12 colon) of over 21.4 µM. It also gave a GI50 (LOX IMVI melanoma) of 5.18 µM, a TGI (LOX IMVI melanoma) of over 25 µM and a GI50 (M14 melanoma) of 8.63 µM. It also gave a TGI (M14 melanoma) of over 25 µM, a GI50 (MALME-3M melanoma) of 7.63 µM and a TGI (MALME-3M melanoma) of 24.5 µM. It also gave a GI50 (MCF7 breast) of 5.97 µM, a TGI (MCF7 breast) of over 19 µM and a GI50 (MDA-MB-231 breast) of 8.04 µM. It also gave a TGI (MDA-MB-231 breast) of over 25 µM, a GI50 (MDA-MB-435) of 7.56 µM and a TGI (MDA-MB-435) of over 25 µM. For the same molecule, the GI50 (MOLT-4 leukemia) was 9.61 µM, the TGI (MOLT-4 leukemia) was over 25 µM and the GI50 (NCI-H226 lung) was 3.79 µM. The TGI (NCI-H226 lung) was over 16.8 µM, the GI50 (NCI-H23 lung) was 7.87 µM and the TGI (NCI-H23 lung) was over 25 µM. The GI50 (NCI-H460 lung) was 6.56 µM, the TGI (NCI-H460 lung) was over 25 µM and the GI50 (NCI-H522 lung) was 10.6 µM. It also gave a TGI (NCI-H522 lung) of over 25 µM, a GI50 (NCI/ADR-RES ovarian) of 6.78 µM and a TGI (NCI/ADR-RES ovarian) of over 25 µM. For the same molecule, the GI50 (OVCAR-3 ovarian) was 6.16 µM, the TGI (OVCAR-3 ovarian) was over 21.9 µM and the GI50 (OVCAR-4 ovarian) was 11 µM. The TGI (OVCAR-4 ovarian) was over 25 µM, the GI50 (OVCAR-5 ovarian) was 7.28 µM and the TGI (OVCAR-5 ovarian) was 24.9 µM. For the same molecule, the GI50 (OVCAR-8 ovarian) was 7.03 µM, the TGI (OVCAR-8 ovarian) was over 25 µM and the GI50 (PC-3 prostate) was 8.71 µM. For the same molecule, the TGI (PC-3 prostate) was over 25 µM, the GI50 (RPMI-8226 leukemia) was 6.7 µM and the TGI (RPMI-8226 leukemia) was over 25 µM. For the same molecule, the GI50 (RXF 393 renal) was 3.34 µM, the TGI (RXF 393 renal) was 7.78 µM and the GI50 (SF-268 CNS) was 6.39 µM. For the same molecule, the TGI (SF-268 CNS) was over 23.3 µM, the GI50 (SF-295 CNS) was 5.81 µM and the TGI (SF-295 CNS) was over 20.4 µM. For the same molecule, the GI50 (SF-539 CNS) was 6.18 µM, the TGI (SF-539 CNS) was 18.7 µM and the GI50 (SK-MEL-2 melanoma) was 5.12 µM. The TGI (SK-MEL-2 melanoma) was 13.9 µM, the GI50 (SK-MEL-28 melanoma) was 5.65 µM and the TGI (SK-MEL-28 melanoma) was over 18 µM. It also gave a GI50 (SK-MEL-5 melanoma) of 3.63 µM, a TGI (SK-MEL-5 melanoma) of 9.7 µM and a GI50 (SK-OV-3 ovarian) of 8.34 µM. The TGI (SK-OV-3 ovarian) was over 25 µM, the GI50 (SN12C renal) was 8.2 µM and the TGI (SN12C renal) was over 25 µM. For the same molecule, the GI50 (SNB-19 CNS) was 8.35 µM, the TGI (SNB-19 CNS) was over 25 µM and the GI50 (SNB-75 CNS) was 5.52 µM. The TGI (SNB-75 CNS) was 12.7 µM, the GI50 (SR leukemia) was 5.21 µM and the TGI (SR leukemia) was over 21.3 µM. For the same molecule, the GI50 (SW-620 colon) was 6.66 µM, the TGI (SW-620 colon) was over 25 µM and the GI50 (T-47D breast) was 5.93 µM. It also gave a TGI (T-47D breast) of over 21.3 µM, a GI50 (TK-10 renal) of 6.67 µM and a TGI (TK-10 renal) of over 23.2 µM. For the same molecule, the GI50 (U251 CNS) was 7.18 µM, the TGI (U251 CNS) was over 25 µM and the GI50 (UACC-257 melanoma) was 6.68 µM. It also gave a TGI (UACC-257 melanoma) of over 22.1 µM, a GI50 (UACC-62 melanoma) of 5.86 µM and a TGI (UACC-62 melanoma) of 18.4 µM. It also gave a GI50 (UO-31 renal) of 5.23 µM and a TGI (UO-31 renal) of 21 µM.
